Measured values as given in ChEMBL document CHEMBL1201862, “PubChem BioAssay data set” (2004).
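Five compound concentrations were applied to cells in 96-well plates for 48 hours; endpoints were derived by simple linear interpolation of the resulting dose-response curve. Abbreviation: GI50, concentration required for 50% inhibition of growth.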 Activity calls are given as the source filed them. No stated cut-off is given here; in the data, active = GI50 up to about 1.1 µM and inactive = higher.

Key:
Experiment in all cases: NCI tumour cell line growth inhibition, 48 h
ACHN = test system: ACHN
DU-145 = test system: DU-145
HCC 2998 = test system: HCC 2998
HCT-116 = test system: HCT-116
HOP-62 = test system: HOP-62
HOP-92 = test system: HOP-92
Hs-578T = test system: Hs-578T
K562 = test system: K562
KM12 = test system: KM12
MCF7 = test system: MCF7
NCI-H226 = test system: NCI-H226
NCI-H460 = test system: NCI-H460
SF-268 = test system: SF-268
SF-295 = test system: SF-295
SF-539 = test system: SF-539
SK-MEL-28 = test system: SK-MEL-28
SK-MEL-2 = test system: SK-MEL-2
SNB-19 = test system: SNB-19
SNB-75 = test system: SNB-75
UACC-62 = test system: UACC-62

Row | Compound | GI50 (ACHN) | GI50 (DU-145) | GI50 (HCC 2998) | GI50 (HCT-116) | GI50 (HOP-62) | GI50 (HOP-92) | GI50 (Hs-578T) | GI50 (K562) | GI50 (KM12) | GI50 (MCF7) | GI50 (NCI-H226) | GI50 (NCI-H460) | GI50 (SF-268) | GI50 (SF-295) | GI50 (SF-539) | GI50 (SK-MEL-28) | GI50 (SK-MEL-2) | GI50 (SNB-19) | GI50 (SNB-75) | GI50 (UACC-62)
1 | C=C(C)C1Cc2c(cc3c(c2O)c(=O)c2ccccc2n3C)O1 (stereo not given) | 5.14 µM (inactive) | > 10 µM (inactive) | 12.1 µM (inactive) | 2.03 µM (inactive) | 9.12 µM (inactive) | 7.67 µM (inactive) | 6.3 µM (inactive) | 1.79 µM (inactive) | 1.95 µM (inactive) | 2.94 µM (inactive) | 2.41 µM (inactive) | 3.1 µM (inactive) | 2.48 µM (inactive) | 5.78 µM (inactive) | 2.4 µM (inactive) | 10.7 µM (inactive) | 5.42 µM (inactive) | 2.61 µM (inactive) | 4.5 µM (inactive) | 2.34 µM (inactive)
2 | COC(=O)c1cc2c(cc1CC(Cc1ccc3c(c1)CCCC3)C(=O)OC)CCCC2 (stereo not given) | 49.9 µM (inactive) | > 100 µM (inactive) | 20.8 µM (inactive) | 36 µM (inactive) | > 100 µM (inactive) | 44.9 µM (inactive) | 93.3 µM (inactive) | 40.1 µM (inactive) | 50.5 µM (inactive) | 40.1 µM (inactive) | 59.3 µM (inactive) | 34 µM (inactive) | 29 µM (inactive) | 76 µM (inactive) | 32.7 µM (inactive) | 86.1 µM (inactive) | > 100 µM (inactive) | > 100 µM (inactive) | 64.4 µM (inactive) | > 100 µM (inactive)
3 | CCCCCCCCCC[C@@H](O)[C@H]1CC[C@@H]([C@H]2CC[C@H]([C@H](O)CCCCCCCCCC[C@@H]3CC(CC(C)=O)C(=O)O3)O2)O1 (stereo not given in full) | 1.17 µM (inactive) | 9.27 µM (inactive) | 19.1 µM (inactive) | 2.68 µM (inactive) | 7.55 µM (inactive) | 17 µM (inactive) | 1.04 µM (active) | 1.84 µM (inactive) | 2.52 µM (inactive) | 1.31 µM (inactive) | 1 µM (active) | 0.147 µM (active) | 2.1 µM (inactive) | 1.77 µM (inactive) | 7.05 µM (inactive) | 3.46 µM (inactive) | 4.94 µM (inactive) | 2.9 µM (inactive) | 1.42 µM (inactive) | 3.92 µM (inactive)
4 | CC1CC[C@@]2(OC1)OC1C[C@H]3[C@@H]4CC[C@H]5CC(OC6OC(CO)C(OC7OC(CO)C(O)C(O)C7OC7OC(CO)C(O)C(O)C7O)C(O)C6O)CCC5(C)[C@H]4CCC3(C)C1[C@@H]2C (stereo not given in full) | 1.54 µM (inactive) | 0.975 µM (active) | 1.04 µM (active) | 1.94 µM (inactive) | 1.44 µM (inactive) | 5.2 µM (inactive) | 1.99 µM (inactive) | 2.21 µM (inactive) | 3.33 µM (inactive) | 1.01 µM (active) | 1.34 µM (inactive) | 3.08 µM (inactive) | 2.75 µM (inactive) | 4.26 µM (inactive) | 1.22 µM (inactive) | 2.12 µM (inactive) | 2.38 µM (inactive) | 3.37 µM (inactive) | 2.59 µM (inactive) | 8.95 µM (inactive)
5 | O=C(CSCC(=O)N/N=C/c1cccs1)N/N=C/c1cccs1 | 64.4 µM (inactive) | 54.3 µM (inactive) | > 100 µM (inactive) | > 100 µM (inactive) | 46.3 µM (inactive) | 27.2 µM (inactive) | 61.1 µM (inactive) | > 100 µM (inactive) | > 100 µM (inactive) | > 100 µM (inactive) | 37.2 µM (inactive) | > 100 µM (inactive) | 72.9 µM (inactive) | 52.7 µM (inactive) | 52.8 µM (inactive) | > 100 µM (inactive) | 93.1 µM (inactive) | 56.1 µM (inactive) | > 100 µM (inactive) | > 100 µM (inactive)
6 | CCCCN1C(=O)C2Cc3c([nH]c4ccccc34)C(c3cccc(O)c3)N2C1=O (stereo not given) | 19.8 µM (inactive) | 18.6 µM (inactive) | 18.9 µM (inactive) | 18.7 µM (inactive) | 18.5 µM (inactive) | 19.2 µM (inactive) | 27.9 µM (inactive) | 20.2 µM (inactive) | 19.4 µM (inactive) | 18.3 µM (inactive) | 21.5 µM (inactive) | 20 µM (inactive) | 19.1 µM (inactive) | 17.4 µM (inactive) | 18.8 µM (inactive) | 19 µM (inactive) | 18 µM (inactive) | 19.1 µM (inactive) | 18.5 µM (inactive) | 17.7 µM (inactive)
7 | COC(=O)c1c[nH]c2c1-c1cc(C(=O)OCc3ccccc3)n(S(=O)(=O)c3ccc(C)cc3)c1C(=O)C2=O | 0.28 µM (active) | 0.154 µM (active) | 0.578 µM (active) | 0.228 µM (active) | 0.376 µM (active) | 0.27 µM (active) | 0.578 µM (active) | 4.99 µM (inactive) | 0.25 µM (active) | 0.184 µM (active) | 0.729 µM (active) | 1.24 µM (inactive) | 0.234 µM (active) | 0.17 µM (active) | 0.197 µM (active) | 0.12 µM (active) | 0.195 µM (active) | 0.193 µM (active) | 0.189 µM (active) | 0.188 µM (active)
8 | COc1ccc(C2C(C#N)=C(S)N(C3OC(CO)C(O)C(O)C3O)C(C)=C2C(C)=O)cc1 (stereo not given) | > 100 µM (inactive) | > 100 µM (inactive) | > 100 µM (inactive) | > 100 µM (inactive) | > 100 µM (inactive) | 29 µM (inactive) | > 100 µM (inactive) | 59.4 µM (inactive) | > 100 µM (inactive) | > 100 µM (inactive) | > 100 µM (inactive) | > 100 µM (inactive) | > 100 µM (inactive) | > 100 µM (inactive) | > 100 µM (inactive) | > 100 µM (inactive) | > 100 µM (inactive) | > 100 µM (inactive) | 42.7 µM (inactive) | 86.1 µM (inactive)
9 | O=C(NCCNCCNC(=O)c1cc(-c2ccccc2)nc2ccccc12)c1cc(-c2ccccc2)nc2ccccc12 | 2.14 µM (inactive) | 2.38 µM (inactive) | 1.73 µM (inactive) | 1.7 µM (inactive) | 1.57 µM (inactive) | 1.82 µM (inactive) | 2.73 µM (inactive) | 2.16 µM (inactive) | 1.91 µM (inactive) | 1.78 µM (inactive) | 2.91 µM (inactive) | 1.5 µM (inactive) | 2.84 µM (inactive) | 1.67 µM (inactive) | 2 µM (inactive) | 1.77 µM (inactive) | 1.82 µM (inactive) | 3.21 µM (inactive) | 1.92 µM (inactive) | 2.09 µM (inactive)
10 | CN1CCCC(C(=O)OCC(=O)C2(O)CCC3C4CCC5=CC(=O)CCC5(C)C4C(O)CC32C)C1 (stereo not given) | 17.9 µM (inactive) | 18.7 µM (inactive) | 7.89 µM (inactive) | 8.97 µM (inactive) | 14.6 µM (inactive) | 50.9 µM (inactive) | 35.3 µM (inactive) | 9.12 µM (inactive) | 25.2 µM (inactive) | 12.6 µM (inactive) | 17.1 µM (inactive) | 11.5 µM (inactive) | 20.9 µM (inactive) | 19.9 µM (inactive) | 2.12 µM (inactive) | 17.7 µM (inactive) | 19.5 µM (inactive) | 8.05 µM (inactive) | 4.85 µM (inactive) | 18.1 µM (inactive)
